Assay results published in ChEMBL document CHEMBL1122011, “Synthesis of N-(carbonylamino)-1,2,3,6-tetrahydropyridines with analgesic, antiinflammatory, and hyperglycemic activity” (J Med Chem, 1982).

How the values were obtained:
Mus musculus [1] = assay: Analgesic activity in mice using phenylquinone writhing test at 30 mg/kg, sc dose; assay type: functional; settings: route subcutaneous
Mus musculus [2] = assay: Analgesic activity in mice using phenylquinone writhing test at 3mg/kg, sc dose; assay type: functional
Mus musculus [3] = assay: Analgesic activity in mice using phenylquinone writhing test at 3 mg/kg, sc dose. 0.6 mg/kg Noxolone was prior to compound injection; assay type: functional
Rattus norvegicus [4] = assay: % change in blood glucose concentration after 2 hr post treatment at 100 mg/kg, po; assay type: functional; set-up: unit: %
Rattus norvegicus [5] = assay: (§1) % change in blood glucose concentration after 4 hr post treatment at 100 mg/kg, po; assay type: functional; set-up: unit: %
Mus musculus [6] = assay: Effective dose in mouse hotplate test at 55+/-0.5 degree Centigrade after 30 min of dosing; assay type: functional; settings: 0.5 h
Mus musculus [7] = assay: Analgesic activity in mice using phenylquinone writhing test at 25 mg/kg, sc dose; assay type: functional; settings: route subcutaneous
Rattus norvegicus [8] = assay: % change in blood glucose concentration after 2 hr post treatment at 41 mg/kg, po; assay type: functional
Rattus norvegicus [9] = assay: % change in blood glucose concentration after 4 hr post treatment at 53 mg/kg, po; assay type: functional
Rattus norvegicus [10] = assay: Inhibitory against carrageenan induced paw edema in rat at 120 mg/kg, sc dose after 3h; assay type: functional; settings: route subcutaneous
Rattus norvegicus [11] = assay: Inhibitory against carrageenan induced paw edema in rat at 120 mg/kg, sc dose after 5 hr; assay type: functional; settings: route subcutaneous
Mus musculus [12] = assay: Analgesic activity in mice using phenylquinone writhing test at 14.5 mg/kg, sc dose; assay type: functional; settings: route subcutaneous
Rattus norvegicus [13] = assay: as §1; assay type: functional
Rattus norvegicus [14] = assay: Inhibitory against carrageenan induced paw edema in rat at 128 mg/kg, sc dose after 3h; assay type: functional; settings: route subcutaneous
Rattus norvegicus [15] = assay: Inhibitory against carrageenan induced paw edema in rat at 128 mg/kg, sc dose after 5 hr; assay type: functional; settings: route subcutaneous
Mus musculus [16] = assay: Analgesic activity in mice using phenylquinone writhing test at 56 mg/kg, sc dose; assay type: functional; settings: route subcutaneous
Mus musculus [17] = assay: Analgesic activity in mice using phenylquinone writhing test at 16.5 mg/kg, sc dose; assay type: functional; settings: route subcutaneous
Rattus norvegicus [18] = assay: % change in blood glucose concentration after 2 hr post treatment at 36.5 mg/kg, po; assay type: functional
Mus musculus [19] = organism: Mus musculus; assay: animal or person; settings: sc, read-out: Inhibition
Description: Analgesic activity in mice using phenylquinone writhing test at 0.038 mg/kg, sc dose

Mus musculus [20] = assay: Inhibitory against carrageenan induced paw edema in mice at 128 mg/kg, sc dose after 3h; assay type: functional; settings: route subcutaneous
Mus musculus [21] = assay: Analgesic activity in mice using phenylquinone writhing test at 128 mg/kg when administered subcutaneously; assay type: functional; settings: sc, route subcutaneous
Rattus norvegicus [22] = assay: % change in blood glucose concentration after 2 hr post treatment at 128 mg/kg, po; assay type: functional
Rattus norvegicus [23] = assay: % change in blood glucose concentration after 4 hr post treatment at 128 mg/kg, po; assay type: functional
Mus musculus [24] = assay: Inhibitory against carrageenan induced paw edema in mice at 128 mg/kg, sc dose after 5 hr; assay type: functional; settings: route subcutaneous
Mus musculus [25] = assay: Analgesic activity in mice using phenylquinone writhing test at 0.00075 mg/kg, sc dose; assay type: functional; settings: route subcutaneous
Rattus norvegicus [26] = assay: % change in blood glucose concentration after 2 hr post treatment at 50 mg/kg, po; assay type: functional
Rattus norvegicus [27] = assay: % change in blood glucose concentration after 4 hr post treatment at 60 mg/kg, po; assay type: functional
Mus musculus [28] = assay: Analgesic activity in mice using phenylquinone writhing test at 50 mg/kg, sc dose; assay type: functional; settings: route subcutaneous
Mus musculus [29] = assay: Inhibitory against carrageenan induced paw edema in mice at 12 mg/kg, sc dose after 3h; assay type: functional; settings: route subcutaneous
Mus musculus [30] = assay: Inhibitory against carrageenan induced paw edema in mice at 12 mg/kg, sc dose after 5 hr; assay type: functional; settings: route subcutaneous
Mus musculus [31] = assay: Analgesic activity in mice using phenylquinone writhing test at 120 mg/kg, sc dose; assay type: functional; settings: route subcutaneous
Mus musculus [32] = assay: Analgesic activity in mice using phenylquinone writhing test at 0.0075 mg/kg, sc dose; assay type: functional; settings: route subcutaneous
Mus musculus [33] = assay: Analgesic activity in mice using phenylquinone writhing test at 10 mg/kg, sc dose; assay type: functional; settings: route subcutaneous
Mus musculus [34] = assay: Analgesic activity in mice using phenylquinone writhing test at 10 mg/kg, sc dose. 2 mg/kg Noxolone was prior to compound injection; assay type: functional
Rattus norvegicus [35] = assay: % change in blood glucose concentration after 2 hr post treatment at 17 mg/kg, po; assay type: functional
Rattus norvegicus [36] = assay: % change in blood glucose concentration after 4 hr post treatment at 30 mg/kg, po; assay type: functional
Mus musculus [37] = assay: Analgesic activity in mice using phenylquinone writhing test at 60 mg/kg, sc dose; assay type: functional; settings: route subcutaneous

Compound: CCOC(=O)NN1CC=CCC1
- inhibition in vivo at 30 mg/kg (Mus musculus [1]): 99%
- inhibition in vivo at 3 mg/kg (Mus musculus [2]): 85.6%
- Inhibition (Mus musculus [3]): 86%
- Hyperglycemic activity (Rattus norvegicus [4]): 27
- Hyperglycemic activity (Rattus norvegicus [5]): 91
- ED50 (Mus musculus [6]): 19.5 mg/kg

Compound: O=C(COc1ccccc1)NN1CC=CCC1
- inhibition in vivo at 25 mg/kg (Mus musculus [7]): 50%
- Hyperglycemic activity (Rattus norvegicus [8]): 50
- Hyperglycemic activity (Rattus norvegicus [9]): 50
- inhibition in vivo at 120 mg/kg (Rattus norvegicus [10]): 83%
- inhibition in vivo at 120 mg/kg (Rattus norvegicus [11]): 80%

Compound: O=C(Cc1cccnc1)NN1CC=CCC1
- inhibition in vivo at 14.5 mg/kg (Mus musculus [12]): 50%
- Hyperglycemic activity (Rattus norvegicus [4]): 0
- Hypoglycemic activity (Rattus norvegicus [13]): -6
- inhibition in vivo at 128 mg/kg (Rattus norvegicus [14]): 50%
- inhibition in vivo at 128 mg/kg (Rattus norvegicus [15]): 50%

Compound: CCC(=O)O[C@](Cc1ccccc1)(c1ccccc1)[C@H](C)CN(C)C [PROPOXYPHENE]
- inhibition in vivo at 56 mg/kg (Mus musculus [16]): 50%

Compound: CC(=O)NN1CC=CCC1
- inhibition in vivo at 30 mg/kg (Mus musculus [1]): 99%
- Hyperglycemic activity (Rattus norvegicus [4]): 35
- Hyperglycemic activity (Rattus norvegicus [5]): 36

Compound: O=C(NN1CC=CCC1)C1CCCCC1
- inhibition in vivo at 16.5 mg/kg (Mus musculus [17]): 50%
- Hyperglycemic activity (Rattus norvegicus [18]): 50
- Hyperglycemic activity (Rattus norvegicus [9]): 50
- inhibition in vivo at 120 mg/kg (Rattus norvegicus [10]): 50%
- inhibition in vivo at 120 mg/kg (Rattus norvegicus [11]): 84%

Compound: O=C(NN1CC=CCC1)C12C[C@H]3C[C@@H](C1)C[C@@H](C2)C3
- inhibition in vivo at 30 mg/kg (Mus musculus [1]): 86%
- Hyperglycemic activity (Rattus norvegicus [4]): 33
- Hyperglycemic activity (Rattus norvegicus [5]): 22

Compound: CN1CC[C@]23c4c5ccc(O)c4O[C@H]2[C@@H](O)C=C[C@H]3[C@H]1C5
- inhibition in vivo at 0.038 mg/kg (Mus musculus [19]): 50%

Compound: O=C(NN1CC=CCC1)c1cccc[n+]1[O-]
- inhibition in vivo at 128 mg/kg (Mus musculus [20]): 34%
- inhibition in vivo at 128 mg/kg (Mus musculus [21]): 55%
- Hypoglycemic activity (Rattus norvegicus [22]): <20
- Hypoglycemic activity (Rattus norvegicus [23]): <20
- inhibition in vivo at 128 mg/kg (Mus musculus [24]): 0%

Compound: O=C(NN1CC=CCC1)C1CCCCCC1
- inhibition in vivo at 0.00075 mg/kg (Mus musculus [25]): 50%
- inhibition in vivo at 30 mg/kg (Mus musculus [1]): 98%
- Hyperglycemic activity (Rattus norvegicus [4]): 100
- Hyperglycemic activity (Rattus norvegicus [26]): 50
- Hyperglycemic activity (Rattus norvegicus [27]): 50
- Hyperglycemic activity (Rattus norvegicus [5]): 82

Compound: CC(C)(C)C(=O)NN1CC=CCC1
- inhibition in vivo at 30 mg/kg (Mus musculus [1]): 100%
- Hyperglycemic activity (Rattus norvegicus [4]): 70
- Hyperglycemic activity (Rattus norvegicus [5]): 101

Compound: CC(=O)Oc1ccccc1C(=O)O [ASPIRIN]
- inhibition in vivo at 50 mg/kg (Mus musculus [28]): 50%

Compound: COc1ccc2c(c1)c(CC(=O)O)c(C)n2C(=O)c1ccc(Cl)cc1 [INDOMETHACIN]
- inhibition in vivo at 12 mg/kg (Mus musculus [29]): 17%
- inhibition in vivo at 12 mg/kg (Mus musculus [30]): 83%

Compound: O=C(CCc1ccccc1)NN1CC=CCC1
- inhibition in vivo at 120 mg/kg (Mus musculus [31]): 42%
- Hyperglycemic activity (Rattus norvegicus [4]): 27
- inhibition in vivo at 120 mg/kg (Rattus norvegicus [10]): 83%
- inhibition in vivo at 120 mg/kg (Rattus norvegicus [11]): 83%
- Hyperglycemic activity (Rattus norvegicus [5]): 25

Compound: Cn1cccc1C(=O)NN1CC=CCC1
- inhibition in vivo at 30 mg/kg (Mus musculus [1]): 90%
- Hyperglycemic activity (Rattus norvegicus [4]): 35
- Hyperglycemic activity (Rattus norvegicus [5]): 25

Compound: O=C(NN1CC=CCC1)c1cccs1
- inhibition in vivo at 30 mg/kg (Mus musculus [1]): 77%
- Hyperglycemic activity (Rattus norvegicus [4]): 116
- Hyperglycemic activity (Rattus norvegicus [5]): 64

Compound: O=C(NN1CC=CCC1)C1CC1
- inhibition in vivo at 30 mg/kg (Mus musculus [1]): 100%
- Hyperglycemic activity (Rattus norvegicus [4]): 66
- Hyperglycemic activity (Rattus norvegicus [5]): 111

Compound: O=C(NN1CC=CCC1)C1CCCC1
- inhibition in vivo at 30 mg/kg (Mus musculus [1]): 98%
- Hyperglycemic activity (Rattus norvegicus [4]): 54
- Hyperglycemic activity (Rattus norvegicus [5]): 22

Compound: O=C(NN1CC=CCC1)c1ccco1
- inhibition in vivo at 0.0075 mg/kg (Mus musculus [32]): 50%
- inhibition in vivo at 10 mg/kg (Mus musculus [33]): 98.4%
- Inhibition (Mus musculus [34]): 99.2%
- inhibition in vivo at 30 mg/kg (Mus musculus [1]): 99%
- Hyperglycemic activity (Rattus norvegicus [4]): 181
- Hyperglycemic activity (Rattus norvegicus [35]): 50
- Hyperglycemic activity (Rattus norvegicus [36]): 50
- Hyperglycemic activity (Rattus norvegicus [5]): 182

Compound: O=C(COc1cccc2ccccc12)NN1CC=CCC1
- inhibition in vivo at 30 mg/kg (Mus musculus [1]): 76%
- Hyperglycemic activity (Rattus norvegicus [4]): 9
- Hyperglycemic activity (Rattus norvegicus [5]): 14

Compound: O=C(NN1CC=CCC1)c1cccc(C(=O)NN2CC=CCC2)n1
- inhibition in vivo at 30 mg/kg (Mus musculus [1]): 60%
- Hyperglycemic activity (Rattus norvegicus [4]): -8
- Hyperglycemic activity (Rattus norvegicus [5]): 10

Compound: O=C(Cc1ccc2c(c1)OCO2)NN1CC=CCC1
- inhibition in vivo at 60 mg/kg (Mus musculus [37]): 80%
- Hyperglycemic activity (Rattus norvegicus [4]): 7
- inhibition in vivo at 120 mg/kg (Rattus norvegicus [10]): 0%
- inhibition in vivo at 120 mg/kg (Rattus norvegicus [11]): 0%
- Hyperglycemic activity (Rattus norvegicus [5]): 21
